Data: PubChem BioAssay (NCI)
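Values below derive from 48-hour exposures of cells grown in 96-well plates, with endpoints linearly interpolated between the two concentrations bracketing the appropriate inhibition level. TGI denotes the concentration required for complete inhibition of growth.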

Experiments:
Assay in all cases: growth of human tumour cells (NCI), 48 h
UO-31 renal = tested on: UO-31 renal
K-562 leukemia = tested on: K-562 leukemia
HCC-2998 colon = tested on: HCC-2998 colon
SNB-78 CNS = tested on: SNB-78 CNS
HOP-92 NSCLC = tested on: HOP-92 NSCLC
SNB-75 CNS = tested on: SNB-75 CNS
MOLT-4 leukemia = tested on: MOLT-4 leukemia
SK-MEL-5 melanoma = tested on: SK-MEL-5 melanoma
CAKI-1 renal = tested on: CAKI-1 renal
M19-MEL melanoma = tested on: M19-MEL melanoma
XF 498 CNS = tested on: XF 498 CNS
DMS 114 small cell lung = tested on: DMS 114 small cell lung
SF-268 CNS = tested on: SF-268 CNS
RPMI-8226 leukemia = tested on: RPMI-8226 leukemia
TK-10 renal = tested on: TK-10 renal
SN12C renal = tested on: SN12C renal
NCI-H522 lung = tested on: NCI-H522 lung
SK-MEL-2 melanoma = tested on: SK-MEL-2 melanoma
KM12 colon = tested on: KM12 colon
UACC-62 melanoma = tested on: UACC-62 melanoma
SK-MEL-28 melanoma = tested on: SK-MEL-28 melanoma
HOP-18 NSCLC = tested on: HOP-18 NSCLC
NCI-H460 lung = tested on: NCI-H460 lung
SR leukemia = tested on: SR leukemia
IGROV1 ovarian = tested on: IGROV1 ovarian
OVCAR-5 ovarian = tested on: OVCAR-5 ovarian
CCRF-CEM leukemia = tested on: CCRF-CEM leukemia
OVCAR-8 ovarian = tested on: OVCAR-8 ovarian
COLO 205 colon = tested on: COLO 205 colon
SK-OV-3 ovarian = tested on: SK-OV-3 ovarian
EKVX NSCLC = tested on: EKVX NSCLC
NCI-H226 lung = tested on: NCI-H226 lung
OVCAR-3 ovarian = tested on: OVCAR-3 ovarian
LOX IMVI melanoma = tested on: LOX IMVI melanoma
HOP-62 NSCLC = tested on: HOP-62 NSCLC
A549 NSCLC = tested on: A549 NSCLC
OVCAR-4 ovarian = tested on: OVCAR-4 ovarian
HT29 colon = tested on: HT29 colon
HCT-15 colon = tested on: HCT-15 colon
SNB-19 CNS = tested on: SNB-19 CNS
786-0 renal = tested on: 786-0 renal
U251 CNS = tested on: U251 CNS
M14 melanoma = tested on: M14 melanoma
A498 renal = tested on: A498 renal
HL-60(TB) leukemia = tested on: HL-60(TB) leukemia
SW-620 colon = tested on: SW-620 colon
RXF 393 renal = tested on: RXF 393 renal
ACHN renal = tested on: ACHN renal
DLD-1 colon = tested on: DLD-1 colon
MALME-3M melanoma = tested on: MALME-3M melanoma
NCI-H23 lung = tested on: NCI-H23 lung
KM20L2 colon = tested on: KM20L2 colon
SF-539 CNS = tested on: SF-539 CNS
HCT-116 colon = tested on: HCT-116 colon
SF-295 CNS = tested on: SF-295 CNS
DMS 273 small cell lung = tested on: DMS 273 small cell lung
UACC-257 melanoma = tested on: UACC-257 melanoma
LXFL 529 NSCLC = tested on: LXFL 529 NSCLC

Measured: TGI

CC(=O)/C=C/c1ccc(C2CC(C)=Nc3c(ccc4c3C(=O)c3ccccc3C4=O)N2)cc1 (configuration not stated)
> 23.6 µM: KM12 colon
> 83.5 µM: CAKI-1 renal
not listed: UACC-257 melanoma | LXFL 529 NSCLC
> 100 µM: all other assays above

O=S(O)c1cc(Cl)cc(Cl)c1O
not listed: HOP-92 NSCLC | SK-MEL-5 melanoma | CAKI-1 renal | RPMI-8226 leukemia | HOP-18 NSCLC | SR leukemia | IGROV1 ovarian | OVCAR-8 ovarian | COLO 205 colon | NCI-H226 lung | A549 NSCLC | HCT-15 colon | 786-0 renal | SW-620 colon | KM20L2 colon | SF-295 CNS | DMS 273 small cell lung
> 100 µM: all other assays above
